One assay deals with T1, HsEH (Homo sapiens, UniProt P34913).
T1 sequence (P34913 1-555): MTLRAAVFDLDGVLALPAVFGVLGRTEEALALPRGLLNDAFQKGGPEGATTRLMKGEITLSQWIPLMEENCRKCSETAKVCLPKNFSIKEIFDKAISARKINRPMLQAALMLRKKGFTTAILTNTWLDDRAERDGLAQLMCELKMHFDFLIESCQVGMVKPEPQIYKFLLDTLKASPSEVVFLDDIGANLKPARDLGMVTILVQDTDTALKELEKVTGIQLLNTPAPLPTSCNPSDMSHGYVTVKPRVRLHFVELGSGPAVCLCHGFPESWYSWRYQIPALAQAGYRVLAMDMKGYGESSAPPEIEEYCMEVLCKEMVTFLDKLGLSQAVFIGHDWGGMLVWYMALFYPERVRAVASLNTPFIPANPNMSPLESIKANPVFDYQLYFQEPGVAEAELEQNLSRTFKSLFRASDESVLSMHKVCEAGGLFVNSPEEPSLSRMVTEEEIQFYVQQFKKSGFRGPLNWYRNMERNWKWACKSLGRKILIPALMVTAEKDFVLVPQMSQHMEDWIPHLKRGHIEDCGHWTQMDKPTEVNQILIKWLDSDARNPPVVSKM
Kind of assay: biochemical. It counts as biochemical. From the text:
(§1) Detection principle: a specific substrate, (3-phenyl-oxy)-acetic acid cyano-(6-methoxy-naphthalen-2-yl)methyl ester, namely PHOME, is non-fluorescent but can be hydrolyzed under the action of sEH enzyme to generate a product 6-methoxy-2-naphthaldehyde. The 6-methoxy-2-naphthaldehyde can emit fluorescence with a wavelength of 465 nm under 330 nm light wave excitation, and an intensity of the detected fluorescence signal is inversely proportional to an inhibitory effect on the sEH enzyme. Based on the above principle, the inhibition rates of samples with different concentrations were calculated compared with the positive control group. The IC50 value of the compound was calculated based on the inhibition rate and concentration using SPSS 20 software.
(§2) 25 mM Tris-HCl buffer (pH=7.4, containing 0.1 mg/mL BSA): […] BAS was added to 12.5 mL of 1 M Tris-HCl buffer, followed by diluting with purified water, and a resulting mixture was adjusted to a pH value of 7.4 with hydrochloric acid, and diluted to 500 mL.
(§3) PHOME solution: 0.79 mg PHOME was dissolved in 106 μL DMSO to obtain a 20 mM PHOME solution, which was diluted to ⅓ mM with Tris-HCl buffer before use.
(§4) sEH solution: sEH (5 mg/mL) stock solution was stored in a refrigerator at −80° C. and diluted to 4 μg/mL with 25 mM Tris-HCl buffer before use.
(§5) A sample powder to be tested was dissolved in DMSO to a 20 mM solution, stored in a refrigerator at −20° C. for later use, and diluted with Tris-HCl buffer to corresponding concentrations when used.
(§6) Experimental design: solvent group, 100% activity group (A), inhibitor group (B), positive control group (C), as shown in Table 1.
(§7) Three replicate wells were set for each sample, and the average value of the three replicate wells was the fluorescence value (F) of the compound to be tested. […] The IC50 value of the compound was calculated based on the inhibition rate and concentration using SPSS 20 software.

A further assay addresses T2, MsEH (Mus musculus, UniProt P34914).
T2 sequence (P34914 1-554): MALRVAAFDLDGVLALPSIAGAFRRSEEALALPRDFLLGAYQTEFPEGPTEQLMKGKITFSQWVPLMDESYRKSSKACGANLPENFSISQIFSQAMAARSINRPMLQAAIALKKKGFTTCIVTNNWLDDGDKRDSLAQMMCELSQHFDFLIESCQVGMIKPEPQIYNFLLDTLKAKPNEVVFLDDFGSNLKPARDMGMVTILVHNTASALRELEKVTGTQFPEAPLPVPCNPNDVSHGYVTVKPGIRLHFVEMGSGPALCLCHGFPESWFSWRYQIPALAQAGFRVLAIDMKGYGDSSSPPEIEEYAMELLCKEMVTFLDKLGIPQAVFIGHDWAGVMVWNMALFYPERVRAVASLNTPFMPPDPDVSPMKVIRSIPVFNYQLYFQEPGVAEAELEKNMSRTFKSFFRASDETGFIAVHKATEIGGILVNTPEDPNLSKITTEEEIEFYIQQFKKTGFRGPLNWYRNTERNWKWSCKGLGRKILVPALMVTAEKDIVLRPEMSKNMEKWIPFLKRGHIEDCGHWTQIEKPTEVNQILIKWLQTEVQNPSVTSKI
Description: sEH inhibitory activity, PHOME fluorescence assay (MsEH). It counts as biochemical.
Description: as §1, §2, §3, §4, §5, §6, §7

Setting [1] is: PHOME substrate 50 μM, sEH 400 ng/ml, 37° C., 10 min, fluorescence 330/465 nm, read-out: HsEH IC50 (nM) Inhibitory activity against HsEH.

Where two headings read alike, the source gives them in different places.

The values below come from patent publication US20260224548A1 (priority 2022, published 2026).

In general, IC50 refers to the concentration that gives 50% inhibition.

`CN(C)C(=O)[C@H]1CCCN(Cc2ccc(NC(=O)NC34CC5CC(C)(CC(C)(C5)C3)C4)c(F)c2)C1` [CL-105, (S)-1-(4-(3-((1r,3R,5S,7S)-3,5-dimethyladamantan-1-yl)ureido)-3-fluorobenzyl)-N,N-dimethylpiperidine-3-carboxamide]: the IC50 on HsEH is 0.7 nM; against MsEH, 0.12 nM.
On to `CCN(CC)C(=O)[C@H]1CCCN(Cc2ccc(NC(=O)NC34CC5CC(C)(CC(C)(C5)C3)C4)c(F)c2)C1` [CL-106, (S)-1-(4-(3-((1r,3R,5S,7S)-3,5-dimethyladamantan-1-yl)ureido)-3-fluorobenzyl)-N,N-diethylpiperidine-3-carboxamide], for which the IC50 at HsEH (setting [1]) turned out to be 0.35 nM; against MsEH, 0.5 nM.
For `CC12CC3CC(C)(C1)CC(NC(=O)Nc1ccc(CN4CCC[C@H](C(=O)N(CCO)CCO)C4)cc1F)(C3)C2` [CL-107, (S)-1-(4-(3-((1r,3R,5S,7S)-3,5-dimethyladamantan-1-yl)ureido)-3-fluorobenzyl)-N,N-bis(2-hydroxyethyl) piperidine-3-carboxamide], in that order: 0.28 nM and 0.29 nM.
The corresponding values for `CC12CC3CC(C)(C1)CC(NC(=O)Nc1ccc(CN4CCC(C(=O)N(CCO)CCO)CC4)cc1F)(C3)C2` [CL-109, 1-(4-(3-((1r,7r)-3,5-dimethyladamantan-1-yl)ureido)-3-fluorobenzyl)-N,N-bis(2-hydroxyethyl) piperidine-4-carboxamide] are 6.72 nM and 0.55 nM.
`CC12CC3CC(C)(C1)CC(NC(=O)Nc1ccc(CN4CCC[C@H](C(=O)NC(CO)CO)C4)cc1F)(C3)C2` [CL-112, (S)—N-(1,3-dihydroxypropan-2-yl)-1-(4-(3-((1r,3R,5S,7S)-3,5-dimethyladamantan-1-yl)ureido)-3-fluorobenzyl) piperidine-3-carboxamide]: the IC50 at HsEH (setting [1]) is 0.28 nM; on MsEH, 0.35 nM.
The corresponding values for `CC(O)CNC(=O)[C@H]1CCCN(Cc2ccc(NC(=O)NC34CC5CC(C)(CC(C)(C5)C3)C4)c(F)c2)C1` (stereo partly drawn) [CL-113, (3S)-1-(4-(3-((1r,3R,5S,7S)-3,5-dimethyladamantan-1-yl)ureido)-3-fluorobenzyl)-N-(2-hydroxypropyl) piperidine-3-carboxamide] are 0.28 nM and 0.58 nM.
Consider `CC12CC3CC(C)(C1)CC(NC(=O)Nc1ccc(CN4CCC[C@H](C(=O)NCCO)C4)cc1F)(C3)C2` [CL-114, (S)-1-(4-(3-((1r,3R,5S,7S)-3,5-dimethyladamantan-1-yl)ureido)-3-fluorobenzyl)-N-(2-hydroxyethyl) piperidine-3-carboxamide], for which the IC50 on HsEH (setting [1]) came to 0.63 nM; at MsEH it was 0.18 nM.
As for `CC12CC3CC(C)(C1)CC(NC(=O)Nc1ccc(CN4CCC[C@H](C(=O)NC(CO)(CO)CO)C4)cc1F)(C3)C2` [CL-115, (S)—N-(1,3-dihydroxy-2-(hydroxymethyl)propan-2-yl)-1-(4-(3-((1r,3R,5S,7S)-3,5-dimethyladamantan-1-yl)ureido)-3-fluorobenzyl) piperidine-3-carboxamide], the IC50 was determined as 0.14 nM on HsEH (setting [1]) and 0.32 nM on MsEH.
For `CC12CC3CC(C)(C1)CC(NC(=O)Nc1ccc(CN4CCC[C@H](C(=O)N5CCN(CCO)CC5)C4)cc1F)(C3)C2` [CL-116, 1-((1r,3R,5S,7S)-3,5-dimethyladamantan-1-yl)-3-(2-fluoro-4-(((S)-3-(4-(2-hydroxyethyl)piperazine-1-carbonyl)piperidin-1-yl)methyl)phenyl) urea], in that order: 0.98 nM and 0.55 nM.
For `CC12CC3CC(C)(C1)CC(NC(=O)Nc1ccc(CN4CCC(C(=O)NC(CO)(CO)CO)CC4)cc1F)(C3)C2` [CL-117, N-(1,3-dihydroxy-2-(hydroxymethyl)propan-2-yl)-1-(4-(3-((1r,7r)-3,5-dimethyladamantan-1-yl)ureido)-3-fluorobenzyl) piperidine-4-carboxamide], in that order: 6.51 nM and 0.12 nM.
For the molecule `CC12CC3CC(C)(C1)CC(NC(=O)Nc1ccc(CN4CCC(C(=O)NC(CO)CO)CC4)cc1F)(C3)C2` [CL-119, N-(1,3-dihydroxypropan-2-yl)-1-(4-(3-((1r,7r)-3,5-dimethyladamantan-1-yl)ureido)-3-fluorobenzyl) piperidine-4-carboxamide], the IC50 on HsEH came out at 31.6 nM; against MsEH, 2.25 nM.
For `CC(O)CNC(=O)C1CCN(Cc2ccc(NC(=O)NC34CC5CC(C)(CC(C)(C5)C3)C4)c(F)c2)CC1` (stereo not drawn) [CL-120, 1-(4-(3-((1r,7r)-3,5-dimethyladamantan-1-yl)ureido)-3-fluorobenzyl)-N-(2-hydroxypropyl) piperidine-4-carboxamide], in that order: 6 nM and 0.47 nM.
As to `C=CC(=O)N1CCCN(C(=O)[C@H]2CCCN(Cc3ccc(NC(=O)NC45CC6CC(C)(CC(C)(C6)C4)C5)c(F)c3)C2)CC1` [CL-201, 1-(4-(((S)-3-(4-acryloyl-1,4-diaza-1-carbonyl)piperidin-1-yl)methyl)-2-fluorophenyl)-3-((1r,3R,5S,7S)-3,5-dimethyladamantan-1-yl) urea], the values for the 50% inhibitory concentration (IC50) at HsEH (setting [1]) and against MsEH were 0.42 nM and 1.1 nM, respectively.
Regarding `CC12CC3CC(C)(C1)CC(NC(=O)Nc1ccc(CN4CCC[C@H](C(=O)N5CCCN(C(=O)C6CC6)CC5)C4)cc1F)(C3)C2` [CL-204], the IC50 at HsEH (setting [1]) is 0.42 nM; at MsEH, 0.8 nM.
The corresponding values for `CCC(=O)N1CCC(CC(=O)N2CCCN(Cc3ccc(NC(=O)NC45CC6CC(C)(CC(C)(C6)C4)C5)c(F)c3)CC2)CC1` [GL-1, 1-((1r,3R,5S,7r)-3,5-dimethyladamantan-1-yl)-3-(2-fluoro-4-((4-(2-(1-propionylpiperidin-4-yl)acetyl)-1,4-diaza-1-yl)methyl)phenyl) urea] are 0.33 nM and 0.07 nM.
For `CCC(C)C(=O)N1CCC(CC(=O)N2CCCN(Cc3ccc(NC(=O)NC45CC6CC(C)(CC(C)(C6)C4)C5)c(F)c3)CC2)CC1` [GL-2, 1-((1r,3R,5S,7r)-3,5-dimethyladamantan-1-yl)-3-(2-fluoro-4-((4-(2-(1-(2-methylbutyryl)piperidin-4-yl)acetyl)-1,4-diaza-1-yl)methyl)phenyl) urea], in that order: 0.77 nM and 0.16 nM.
Take `CC(=O)N1CCC(CC(=O)N2CCCN(Cc3ccc(NC(=O)NC45CC6CC(C)(CC(C)(C6)C4)C5)c(F)c3)CC2)CC1` [GL-3, 1-(4-((4-(2-(1-acetylpiperidin-4-yl)acetyl)-1,4-diaza-1-yl)methyl)-2-fluorophenyl)-3-((1r,3R,5S,7r)-3,5-dimethyladamantan-1-yl) urea]: the IC50 on HsEH (setting [1]) was 0.49 nM; at MsEH, 0.11 nM.
As to `CC12CC3CC(C)(C1)CC(NC(=O)Nc1ccc(CN4CCCN(C(=O)CC5CCN(CCO)CC5)CC4)cc1F)(C3)C2` [GL-21, 1-((1r,3R,5S,7r)-3,5-dimethyladamantan-1-yl)-3-(2-fluoro-4-((4-(2-(1-(2-hydroxyethyl)piperidin-4-yl)acetyl)-1,4-diaza-1-yl)methyl)phenyl) urea], the IC50 at HsEH was 4.69 nM; on MsEH, 0.61 nM.
